{
  "source": "the supplement of paper PMC10307832",
  "assay_in_all_cases": "relative viability (nuclei count vs DMSO), 5 days (fraction); higher = more cells survive",
  "key": {"SGI-1776 + Trametinib": {"compound": "CN1CCC(CNc2ccc3ncc(-c4cccc(OC(F)(F)F)c4)n3n2)CC1 [SGI-1776] + CC(=O)Nc1cccc(-n2c(=O)n(C3CC3)c(=O)c3c(Nc4ccc(I)cc4F)n(C)c(=O)c(C)c32)c1 [Trametinib] (partner 0.02 µM)", "summary_of_the_method": "(§1)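 Each reported value is a median over duplicate plates. It expresses relative viability: treated-well nuclei count divided by vehicle-well nuclei count. Lung cancer cell lines in 1536-well plates were dosed by pin tool a day after seeding, alone with one drug or with a fixed anchor-drug dose plus five library-drug doses (not always all listed) in √10 steps, and nuclei were counted after 5 days.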"}, "SGI-1776 + Palbociclib": {"compound": "CN1CCC(CNc2ccc3ncc(-c4cccc(OC(F)(F)F)c4)n3n2)CC1 [SGI-1776] + CC(=O)c1c(C)c2cnc(Nc3ccc(N4CCNCC4)cn3)nc2n(C2CCCC2)c1=O [Palbociclib] (partner 0.5 µM)", "summary_of_the_method": "as §1"}, "SGI-1776 + Tozasertib": {"compound": "CN1CCC(CNc2ccc3ncc(-c4cccc(OC(F)(F)F)c4)n3n2)CC1 [SGI-1776] + Cc1cc(Nc2cc(N3CCN(C)CC3)nc(Sc3ccc(NC(=O)C4CC4)cc3)n2)n[nH]1 [Tozasertib] (partner 0.1 µM)", "summary_of_the_method": "as §1"}, "SGI-1776 + Alpelisib": {"compound": "CN1CCC(CNc2ccc3ncc(-c4cccc(OC(F)(F)F)c4)n3n2)CC1 [SGI-1776] + Cc1nc(NC(=O)N2CCC[C@H]2C(N)=O)sc1-c1ccnc(C(C)(C)C(F)(F)F)c1 [Alpelisib] (partner 2 µM)", "summary_of_the_method": "as §1"}},
  "data": [
    {"cell line": "UMC-11", "values": [
      {"measurement": "relative viability", "setting": "SGI-1776 + Trametinib; first compound 0.08 µM", "value": 0.719},
      {"measurement": "relative viability", "setting": "SGI-1776 + Trametinib; first compound 0.8 µM", "value": 0.684},
      {"measurement": "relative viability", "setting": "SGI-1776 + Trametinib; first compound 2.53 µM", "value": 0.787},
      {"measurement": "relative viability", "setting": "SGI-1776 + Trametinib; first compound 8 µM", "value": 0.432},
      {"measurement": "relative viability", "setting": "SGI-1776 + Palbociclib; first compound 0.08 µM", "value": 0.366},
      {"measurement": "relative viability", "setting": "SGI-1776 + Palbociclib; first compound 0.8 µM", "value": 0.338},
      {"measurement": "relative viability", "setting": "SGI-1776 + Palbociclib; first compound 2.53 µM", "value": 0.378},
      {"measurement": "relative viability", "setting": "SGI-1776 + Palbociclib; first compound 8 µM", "value": 0.312},
      {"measurement": "relative viability", "setting": "SGI-1776 + Tozasertib; first compound 0.08 µM", "value": 0.21},
      {"measurement": "relative viability", "setting": "SGI-1776 + Tozasertib; first compound 0.8 µM", "value": 0.194},
      {"measurement": "relative viability", "setting": "SGI-1776 + Tozasertib; first compound 2.53 µM", "value": 0.208},
      {"measurement": "relative viability", "setting": "SGI-1776 + Tozasertib; first compound 8 µM", "value": 0.197},
      {"measurement": "relative viability", "setting": "SGI-1776 + Alpelisib; first compound 0.08 µM", "value": 0.888},
      {"measurement": "relative viability", "setting": "SGI-1776 + Alpelisib; first compound 0.8 µM", "value": 1},
      {"measurement": "relative viability", "setting": "SGI-1776 + Alpelisib; first compound 2.53 µM", "value": 0.828},
      {"measurement": "relative viability", "setting": "SGI-1776 + Alpelisib; first compound 8 µM", "value": 0.671}
    ]}
  ]
}
